Experimental findings from patent publication US20250255990A1, “FLUORESCENT NANODIAMOND COATED WITH POROUS POLYDOPAMINE, AND USE THEREOF” (KOREA RESEARCH INSTITUTE OF STANDARDS AND SCIENCE, priority 2022, published 2025) are described below.

The subject of this data set is HeLa cells. Nature of the data set: Annexin V-FITC / PI flow cytometry (FACS). The note with it: 50 μg/mL, 16 hours. It counts as cell-based. Here is the method: In addition, analysis was performed using FACS (BD Accuri™, BD Biosciences) to evaluate the biocompatibility of FND@mPDA-PEG. Specifically, HeLa cells were incubated with 50 μg/mL of FND, FND@mPDA-PEG, or doxorubicin for the control experiment at 37° C. for 16 hours and washed with PBS. Cells (1×10^5 cells/sample) were suspended in 100 μL of 1× binding buffer and stained with 5 μL of Annexin V-FITC and 5 μL of PI. The cells were gently vortexed and incubated at room temperature for 15 minutes in the dark. 400 μL of 1× binding buffer was added to each tube and then analyzed by flow cytometry. 10,000 or more events were collected and the data were analyzed using FlowJo™ version 10.7 software.
Background: Flow cytometry measures light scatter and fluorescence of single cells or particles in a stream.

On to `COc1cccc2c1C(=O)c1c(O)c3c(c(O)c1C2=O)C[C@@](O)(C(=O)CO)C[C@@H]3O[C@H]1C[C@H](N)[C@H](O)[C@H](C)O1` [doxorubicin], for which the “apoptosis / cell survival” value was “induced apoptosis of HeLa cells”.
